In brackets after ≈: the same amount, converted by molar mass. Several values for one entry are separate records, joined by “and”; a condition that tells them apart may be missing. Equal values may be shown once. Read-outs that look alike come from different tables or passages of the source.
Assays:
[1] = test system: VRE faecium; conditions: clinical isolate, Table 7
[2] = test system: S. epidermidis B32954; assay: MIC, broth microdilution; type: cell-based, Staphylococcus epidermidis; conditions: Staphylococcus epidermidis, B32954; Gram positive clinical isolate; read-out: Minimum Inhibitory Concentration
[3] = test system: Enterococcus faecalis B84939-vancomycin^r; assay: MIC, broth microdilution; type: cell-based; conditions: Enterococcus faecalis; Gram positive clinical isolate; read-out: Minimum Inhibitory Concentration
[4] = test system: P. aeruginosa R17093; assay: MIC, broth microdilution; type: cell-based, Pseudomonas aeruginosa; conditions: Gram negative clinical isolate, read-out: Minimum Inhibitory Concentration
[5] = test system: Staphylococcus aureus ATCC 24213; assay: microbe, parasite or virus in culture; conditions: ATCC24213, read-out: Minimum Inhibitory Concentration
[6] = test system: Enterococcus faecalis ATCC 29212; assay: microbe, parasite or virus in culture; conditions: ATCC29212, read-out: Minimum Inhibitory Concentration
[7] = test system: S. aureus MSSA; assay: microbe, parasite or virus in culture; conditions: Staphylococcus aureus, read-out: Minimum Inhibitory Concentration
[8] = test system: S. epidermidis MSSE; assay: microbe, parasite or virus in culture; conditions: Staphylococcus epidermidis, read-out: Minimum Inhibitory Concentration
[9] = test system: Enterococcus faecalis (clinical isolate); assay: microbe, parasite or virus in culture; conditions: read-out: Minimum Inhibitory Concentration
[10] = test system: Escherichia coli ATCC 25922; assay: microbe, parasite or virus in culture; conditions: ATCC25922, read-out: Minimum Inhibitory Concentration
[11] = test system: Pseudomonas aeruginosa ATCC 27853; assay: microbe, parasite or virus in culture; conditions: ATCC27853, read-out: Minimum Inhibitory Concentration
[12] = test system: Klebsiella pneumoniae ATCC 13883; assay: microbe, parasite or virus in culture; conditions: ATCC13883, read-out: Minimum Inhibitory Concentration
[13] = test system: Proteus mirabilis ATCC 7002; assay: microbe, parasite or virus in culture; conditions: ATCC7002, read-out: Minimum Inhibitory Concentration
[14] = test system: Moraxella catarrhalis ATCC 25238 (Branhamella); assay: microbe, parasite or virus in culture; conditions: ATCC25238, read-out: Minimum Inhibitory Concentration
[15] = test system: E. Coli-ESBL negative; assay: microbe, parasite or virus in culture; conditions: Escherichia coli, read-out: Minimum Inhibitory Concentration
[16] = test system: K. pneumoniae-ESBL negative; assay: microbe, parasite or virus in culture; conditions: Klebsiella pneumoniae, read-out: Minimum Inhibitory Concentration
[17] = test system: Serratia marcescens; assay: microbe, parasite or virus in culture; conditions: read-out: Minimum Inhibitory Concentration
[18] = test system: Enterobacter aerogenes; assay: microbe, parasite or virus in culture; conditions: Klebsiella aerogenes, read-out: Minimum Inhibitory Concentration
[19] = test system: P. aeruginosa-gentamicin^s, meropenem^s; assay: microbe, parasite or virus in culture; conditions: Pseudomonas aeruginosa, read-out: Minimum Inhibitory Concentration
[20] = test system: P. aeruginosa-gentamicin^r, meropenem^r; assay: microbe, parasite or virus in culture; conditions: Pseudomonas aeruginosa, read-out: Minimum Inhibitory Concentration
[21] = test system: A. baumannii-amikacin^r, meropenem^r; assay: microbe, parasite or virus in culture; conditions: Acinetobacter baumannii, read-out: Minimum Inhibitory Concentration
[22] = test system: E. coli U23773^r; assay: microbe, parasite or virus in culture; conditions: Escherichia coli, read-out: Minimum Inhibitory Concentration
[23] = test system: Enterobacter cloacae W25161; assay: microbe, parasite or virus in culture; conditions: W25161, read-out: Minimum Inhibitory Concentration
[24] = test system: A. baumannii R16998; assay: microbe, parasite or virus in culture; conditions: Acinetobacter baumannii, R16998, read-out: Minimum Inhibitory Concentration
[25] = test system: A. baumannii E11436; assay: MIC, broth microdilution; type: cell-based, Acinetobacter baumannii; conditions: clinical isolate, Table 7
Protocol: Minimal Inhibition Concentration (MIC) measurements: The Minimal Inhibitory Concentration (MIC) was generally determined by the Broth Microdilution method (based on the protocol described in Clinical and Laboratory Standard Institute (CLSI) NCCLS (2003) M7-A6), as follows:
A stock solution of each of the tested compounds was prepared by diluting the compound to a 2,560 μg/ml concentration with an appropriate solvent. The stock solution was then serially 2-fold diluted in 96-well microdilution trays using Cation-Adjusted Mueller-Hinton Broth (CAMHB) until reaching the desired range of concentrations, whereas each well contained double the final working concentration. Each row further had one growth control well (medium+inoculum only), and one sterility control well (medium+tested compound). Plates were stored at −70° C. until used.
The tested microorganisms were used as fresh overnight cultures on blood agar (for gram-positive organisms) or MacConkey agar (for gram-negatives). A standardized inoculum suspension was prepared by the direct colony suspension method, using sterile saline (equivalent to a 0.5 McFarland standard).
Thus, 50 μl of the inoculum suspension were added to each tested well (except for the sterility control well), and […] was performed during 18-24 hours (depending on the tested microorganism or compound) at 35° C.

## CC(=O)N[C@H](CCCNC(=N)N)C(=O)N[C@H](CCCNC(=N)N)C(=O)N[C@H](CCCNC(=N)N)C(=O)N[C@H](CCCNC(=N)N)C(=O)N[C@H](CCCNC(=N)N)C(=O)N[C@H](CCCNC(=N)N)C(=O)N[C@H](CCCNC(=N)N)C(=O)N[C@H](CCCNC(=N)N)C(=O)N[C@H](CCCNC(=N)N)C(=O)O [Compound 12, D-Arg-9-mer-NHAc]
[1]
  Minimum Inhibitory Concentration: > 128.0 mg/L

## NCC1OC(OC2C(CO)OC(OC3C(O)C(N)CC(N)C3OC3OC(CN)C(O)C(O)C3N)C2O)C(N)C(O)C1O (centres unmarked) [Neomycin]
[2]
  MIC: 0.5 µg/mL and 0.55 µM
[3]
  MIC: 64 µg/mL and 70.4 µM
[4]
  MIC: 211.22 µM (≈ 130 µg/mL)
[4]; Pseudomonas aeruginosa, R17093
  MIC: 211 µM and 192 µg/mL
[5]
  MIC: 1.5 µg/mL and 1.65 µM
[6]
  MIC: 128 µg/mL and 141 µM
[7]
  MIC: 1 µg/mL and 1.1 µM
[8]
  MIC: 0.5 µg/mL and 0.55 µM
[9]
  MIC: 128 µg/mL and 141 µM
[10]
  MIC: 1 µg/mL and 1.1 µM
[11]
  MIC: 128 µg/mL and 141 µM
[12]
  MIC: 0.7 µg/mL and 0.77 µM
[13]
  MIC: 1.5 µg/mL and 1.65 µM
[14]
  MIC: 0.25 µg/mL and 0.28 µM
[15]
  MIC: 1 µg/mL and 1.1 µM
[16]
  MIC: 0.7 µg/mL and 0.77 µM
[17]
  MIC: 1 µg/mL and 1.1 µM
[18]
  MIC: 0.7 µg/mL and 0.77 µM
[19]
  MIC: 16 µg/mL and 17.6 µM
[20]
  MIC: 128 µg/mL and 141 µM
[21]
  MIC: 106 µM and 96 µg/mL
[22]
  MIC: 141 µM and 128 µg/mL
[23]
  MIC: 3 µg/mL and 3.3 µM
[24]
  MIC: 32 µg/mL and 35.2 µM

## D-Arg-9-mer-neomycin [Compound 14]
[25]
  Minimum Inhibitory Concentration: 64.0 mg/L

Reference: patent US20060166867A1, “Novel conjugates of polysaccharides and uses thereof” (priority 2003, published 2006)
